Test results published in a melting point compilation (Tetko et al.; mined from patent text by program, amines drawn as free bases though some values may be those of a salt).

Row | Structure (SMILES) | melting point [°C]
1 | CC(NC(=O)C(N)CC(=O)O)C(=O)NC1C(C)(C)SC1(C)C (centres undefined) | 57.2
2 | CC(C)COC(=O)Oc1ccc2c(c1)OCN(CCO[N+](=O)[O-])C2=O | 82 to 84
3 | O=C1CC(c2cccc(-c3csc(C(=O)NCCO)n3)c2)=Nc2ccc(-n3cccc3)cc2N1 | 236 to 238
4 | COc1cccc(F)c1-c1cc(NC(=O)C2CCNCC2)ncn1 | 140 to 143
5 | COC(=O)c1c(C(F)F)nc(C(F)(F)F)c(C(=O)Cl)c1CC(C)C | 71 to 75
6 | O=C(O)C(=O)c1ccc(OCCCNC(=O)c2ccc3ccccc3c2)cc1 | 169 to 170
7 | CC(=O)c1cccc(C)c1NC(=O)CCBr | 99 to 101
8 | CCSc1cccc(-c2nc(=O)c3ccccc3s2)n1 | 161 to 162
9 | N#CCN(C1CC1)S(=O)(=O)Cc1cccc(C(F)(F)F)c1 | 70.1 to 71
10 | CCCCCCCCC=CCCCCCCCCOCC(CN(C)C)OCCCCCCCCC=CCCCCCCCC (centres undefined) | 35 to 38
11 | O=CN1CC2Oc3ccccc3OC2C1 (centres undefined) | 207 to 208
12 | Cc1ccc(-c2nc(NCCN3CCOCC3)cc(Sc3ccc(Cl)cc3)n2)cc1 | 141 to 142
13 | NS(=O)(=O)c1ccc(-n2nc(C(F)(F)F)c(Cl)c2-c2ccc(-c3cncs3)c(Cl)c2)cn1 | 191 to 193
14 | CCOc1cc(N)c(Cl)cc1C(=O)NCC1CN(CC2CCN(Cc3cccc(F)c3)CC2)CCO1 (centres undefined) | 172 to 174
15 | CC1CCCN1CCCOc1ccc2c(c1)CCC1CC(=O)NN=C21 (centres undefined) | 193 to 195
16 | CCCc1c(C(=O)NCc2ccc3cc(OCC(=O)O)ccc3c2)cnn1-c1ccc(Cl)cc1 | 203 to 204
17 | COc1ccc(Cl)cc1C(=O)Nc1ccc(C(F)(F)F)cc1 | 132
18 | CC(C)(C)C1=NN=C(N)SC1 | 75 to 77
19 | CCCC1(CC(=O)OC)CCCc2c1[nH]c1cc(Br)ccc21 (centres undefined) | 198
20 | Fc1ccc(-c2ccnc(Nc3ccc4c(c3)OCCO4)c2)cc1 | 134 to 135
21 | CCOC(=O)/C=C/c1cc(-c2ncc(C(F)(F)F)cc2Cl)ccc1Cl | 118 to 120
22 | Cc1c(C=O)c2ccccc2n1C | 129
23 | Cc1nc(-c2ccccc2)ncc1CBr | 65 to 66
24 | CCSc1ccc(Cl)c(C#N)n1 | 46 to 48
25 | COC(=O)C1(CC(N)=O)C(=O)N(Cc2ccc(Br)cc2F)C(=O)c2ccccc21 (centres undefined) | 180 to 182

Row | Structure (SMILES) | melting point [°C]
26 | CCn1cnc(S(=O)(=O)O)c1 | 278
27 | CC1=C(C(=O)OC2CC(C)(C)N(C)C(C)(C)C2)CC(C(=O)OC2CC(C)(C)N(C)C(C)(C)C2)=C(C)N1 | 232
28 | N#Cc1cccnc1-n1cc(-c2ccc(Oc3ccccc3)cc2)c2c(N)ncnc21 | 242
29 | O=C(O)C=Cc1cc(OCc2ccccc2)cc(OCc2ccccc2)c1 | 154 to 156
30 | Cc1cc(CN2CCN(c3nc(C)c(C(=O)NCc4cccnc4)s3)C2=O)no1 | 185 to 188
31 | Nc1cc(=O)n(Cc2ccc(OC(F)(F)F)cc2)[nH]1 | 99
32 | CN(C(=O)C(C)(C)c1cc(C(F)(F)F)cc(C(F)(F)F)c1)c1cnc(N2CCOCC2)cc1-c1ccccc1Cl | 134 to 136
33 | O=C(O)c1ccc(CCNC(=O)C2Cc3ccccc3N2S(=O)(=O)c2ccc(-c3cccc(C(F)(F)F)c3)cc2)cc1 (centres undefined) | 106
34 | O=C1CC(c2cccc(-n3ccnc3)c2)=Nc2cc(O)c(-c3ccccc3F)cc2N1 | 220
35 | CC(C)CCS(=O)(=O)NC(=O)/C=C/c1cc(C2CC2)nn1Cc1ccc(C(F)(F)F)cc1Cl | 145 to 147
36 | COc1ccccc1C=Cc1nc2c(c(=O)n(C)c(=O)n2C)n1C | 238 to 240
37 | COc1ccc(CN(C(=S)Nc2ccccc2)c2ccc(NNC(C)=O)cc2)cc1 | 126 to 128
38 | CCOC(=O)c1c(N2CCN(C(=O)c3cccs3)CC2)c2ccccc2[nH]c1=O | 198
39 | COc1cc(OC)c(OC)cc1CN1CCc2cc(O)ccc2C1 | 188 to 191
40 | O=C(O)c1ccc(-c2coc(-c3ccc(C(F)(F)F)cc3)n2)cc1 | 294 to 295
41 | CC12CCC(=O)C=C1CCC1C2CCC2(C)C(OC(=O)CBr)CCC12 (centres undefined) | 144 to 145
42 | CC(C)n1cc(C(=O)NCc2ccc(Cl)cc2)c(=O)c2cc(C#CCO)sc21 | 190 to 196
43 | COc1ccc2cc([C@H](C)C(=O)NOCC(=O)N3CCC(CO[N+](=O)[O-])CC3)ccc2c1 | 45 to 47
44 | C=C1COc2ccc(C(=O)OC)cc2C(Cc2ccccc2)(S(=O)(=O)c2ccccc2)C1 (centres undefined) | 164 to 165
45 | COC(CC(=O)c1ccccc1)c1ccc(Cl)cc1F (centres undefined) | 59 to 61
46 | COC(=O)[C@@H](CC(C)C)NC(=O)c1ccc2c(c1)OCO2 | 89 to 90
47 | CCc1nc2c(N)nc3cc(-c4ccncc4)ccc3c2n1CC(C)(C)O | > 250
48 | O=C1N(C(c2ccccc2)c2ccccc2)c2ccccc2C1(O)c1cc2c(cc1O)OCCC2 (centres undefined) | 204 to 206
49 | CCOCc1nc2c(N)nc3cccnc3c2n1CCCC(N)=O | 231 to 232
50 | COc1ccc2c(Cc3c(Cl)cncc3Cl)nnc(-n3ccnc3)c2c1 | > 250

Row | Structure (SMILES) | melting point [°C]
51 | COc1ccc(C(=O)NNc2ccc(NC(=S)Nc3ccccc3)cc2)cc1 | 178
52 | COc1cc(I)c(C(=O)Oc2ccccc2COC(=O)c2ccc3c(c2I)OCO3)cc1OC | 128 to 130
53 | CCOc1cc(OCCCc2cn(-c3ccc(C(F)(F)F)cn3)nc2-c2ccccc2)ccc1CCC(=O)O | 135 to 136
54 | COc1cccc2c1cc(C)n2Cc1ccc(F)cc1 | 104 to 108
55 | CCC(C)OC(=O)C(C(=O)Nc1nc(C)cs1)=C1SCS1 (centres undefined) | 153 to 154
56 | CN(C)C=NC(=O)c1ccc(C(=O)N2Cc3cccn3Cc3ccccc32)cc1 | 232 to 234
57 | Fc1ccc(-c2cnc3ccccc3n2)cc1 | 122
58 | O=Cc1cc(Br)cnc1Cl | 88 to 89
59 | CC(C)(C)C(=O)OCC(CCn1cnc2c(=O)[nH]c(N)nc21)COC(=O)C(C)(C)C | 225 to 237
60 | CCOC(=O)c1c(N2CCN(C(=O)c3cccs3)CC2)c2cc(F)cnc2[nH]c1=O | 124 to 133
61 | O=C(NCCO[N+](=O)[O-])c1ccc(C2NC(C(=O)O)CS2)cc1 (centres undefined) | 128 to 130
62 | COC(=O)c1c(OC(C)C)c(Br)c(Br)n1C | 42 to 45
63 | Nc1nc2ccccc2c2c1ncn2CCCCNC(=O)COc1ccc(C(=O)c2ccccc2)cc1 | 73 to 98
64 | Cc1cccc2c1C(=O)C(=S)N2 | 265
65 | CNCc1cc(OC)c(-c2ccc(C[C@H](NC(=O)c3c(Cl)cccc3Cl)C(=O)O)cc2)c(OC)c1 | 274
66 | COC(=O)C1OC(c2ccccc2)OCC1(C)C (centres undefined) | 86.5 to 88
67 | O=C1C=C(NC(=O)C(=O)c2cn(Cc3ccc(Cl)cc3)c3ccc([N+](=O)[O-])cc23)CO1 | 248 to 250
68 | OCCNc1nnc(-c2ccc(F)c(F)c2Nc2ccc(I)cc2F)o1 | 100 to 103
69 | COC(=O)c1cccc([N+](=O)[O-])c1CS(=O)(=O)NC(=O)Nc1nc(OC)cc(OC)n1 | 177 to 181
70 | O=C(O)CCCCCCc1nc2ccccc2s1 | 62 to 63
71 | COc1cc(NC(=O)NS(=O)(=O)c2ccccc2Cl)nc(OC)n1 | 193 to 196
72 | CCC(=O)OC1(C(=O)CCl)C(C)CC2C3CCC4CC(=O)CCC4(C)C3(Cl)C(Cl)CC21C (centres undefined) | 164
73 | Clc1cccc2cc3cccc(Cl)c3cc12 | 155
74 | COc1cc(CN2CCC(=O)C(C(c3ccccc3)c3ccccc3)C2)ccc1O (centres undefined) | 131 to 132
75 | CC(=O)Nc1ccc2oc3c(c2c1)CCCC3 | 196 to 198

Row | Structure (SMILES) | melting point [°C]
76 | O=Cc1c(Cl)cc(OCCO)cc1Cl | 83 to 85
77 | COc1cc2sc(C)nc2cc1C | 89 to 90
78 | COCC(C)N(C)Cc1c(-c2ccc(NC(=O)NOC)cc2)sc2c1c(=O)n(-c1ccccc1)c(=O)n2Cc1c(F)cccc1F (centres undefined) | 154 to 155
79 | NC(=S)C=Cc1ccc(C(F)(F)F)cc1 | 167 to 170
80 | CN(CCOc1ccc(CC(SCCN)C(=O)O)cc1)c1nc2ccccc2o1 (centres undefined) | 200 to 201
81 | Cc1c(SCCCn2c([N+](=O)[O-])cnc2C)ccnc1CSc1ccncc1 | 140 to 142
82 | O=C(Nc1ccccc1)C1=C(N2CCCC2)COC1=O | 200 to 201
83 | O=c1[nH]c2cc(Cl)ccc2c(O)c1-c1cccc(Oc2ccccn2)c1 | 269 to 271
84 | CCN(C(=O)OC(C)(C)C)c1cn(-c2cccnc2)nc1Cl | 55 to 58
85 | COc1ccc(CN2CCSC2=O)cc1 | 84 to 86
86 | COC(=O)C1=C(CF)NC(C)=C(C(=O)OC(C)C)C1c1cccc(OC)c1OC (centres undefined) | 89 to 91
87 | C=CC[C@H]1CC(C(=O)OC)=C[C@H](N=[N+]=[N-])[C@H]1OS(C)(=O)=O | 70 to 72
88 | CCNC(=O)Nc1nc2cc(-c3cccnc3)cc(-c3cccc(OC)n3)c2s1 | 300
89 | COc1ccccc1N(CC(=O)OC(C)(C)C)C(=O)CNC(=O)Nc1cccc(C)c1 | 171
90 | CN(C)CCCNCc1ccc(-c2cc3ncnc(Nc4ccc5[nH]ccc5c4)c3s2)cc1 | 148 to 160
91 | CC(C)C(NC(=O)C(NC(=O)C1CCCN1C(=O)OC(C)(C)C)C(Cc1ccccc1)C(=O)O)C(=O)NC(Cc1ccc(O)cc1)C(=O)OCc1ccccc1 (centres undefined) | 75 to 78
92 | O=C(O)C1Oc2ccc3c(-c4ccccc4)noc3c2O1 (centres undefined) | 187 to 190
93 | CCOc1cc(C(=CC#N)c2ccc(OC)c(C)c2)ccc1OC | 86 to 88
94 | O=CN1CCC(Oc2c(F)c(F)c(F)c(F)c2F)CC1 | 32 to 34
95 | FC(F)(F)c1cc(C2CN(Cc3ccccc3)CO2)c2cccc(C(F)(F)F)c2n1 (centres undefined) | 108 to 109
96 | CCOP(=O)(OCC)c1nc(N(CC)CC)nc(N(CC)CC)n1 | 45 to 46
97 | CCC(=O)NC[C@H]1CN(c2ccc3c(c2)C[C@@H](C)N3C=O)C(=O)O1 | 118 to 119
98 | N#Cc1cnc2cc(-c3ccc(C=O)cc3)sc2c1Cl | 300 to 305
99 | O=C(OC1COC(OC(=O)c2ccccc2)CO1)c1ccccc1 (centres undefined) | 187 to 189
